Data: patent publication US8778985B2, “Inhibiting amyloid-beta peptide/rage interaction at the blood-brain barrier” (The University of Rochester, priority 2006, dated 2014)

Tested on: APPsw+/− mice
Assay: Human Aβ40 and Aβ42 levels in hippocampus and cortex by ELISA, chronic treatment of APPsw+/− mice
Type: in vivo
Conditions: 1 mg/kg per day i.p. for two months
Protocol: A-B, Aβ40 and Aβ42 levels in hippocampus (A) cortex (B) of APPsw^+/− mice treated with vehicle (filled square) or FPS2 (filled triangle). FPS2 (1 mg/kg per day) was administered intraperitoneally to mice for two months beginning at the age of 8 months. Values are means±s.e.m, n=5-6 per group.
In the chronic-treated mice, Aβ40 and Aβ42 levels in the hippocampus were reduced by about 85% and 90%, respectively, in the FPS2-treated mice compared to vehicle (FIG. 6A). Similarly, Aβ40 and Aβ42 levels in the cortex were reduced by about 70% and 80%, respectively (FIG. 6B).
Compounds were synthesized in parallel using semiautomated chemical reactions. Five commercially-available aromatic aldehydes were condensed in reductive amination reactions with five hydrophobic amines to form 25 secondary amines. Parallel acylation of these 25 secondary amines with five aromatic acyl chlorides provided the final 125-compound library of tertiary amides. The identity of compounds was verified by mass spectrometry (FIG. 9). Purity was assessed by reverse-phase gradient HPLC. Library members isolated with purity <95% were subjected to preparative HPLC purification prior to assay. • Animals. APPsw^+/− (Tg2576) mice were from Taconic Farms (Germantown, N.Y.). Mice were housed under standard conditions (12 hour light/dark cycle starting at 07:00 AM; 21±2° C.; 55±10% humidity) in solid-bottom cages on woodchip bedding. Mice were anesthetized by intraperitoneal injection with urethane (750 mg/kg) and α-chloralose (50 mg/kg). All procedures on mice were performed according to the NIH guidelines, which were approved by the University of Rochester's Committee on Animal Resources. • FPS2 chronic treatment of APPsw^+/− mice. APPsw^+/− mice (n=5-6 per group) were treated intraperitoneally with FPS2 (1 mg/kg per day) or saline for two months beginning at the age of 8 months. After two months of treatment, (i) the cerebral blood flow response to brain activation (whisker stimulation) was measured and (ii) behavioral tests including operant learning, novel object location (NOL), and novel object recognition (NOR) were performed. After these functional tests, the mice were sacrificed and their brains analyzed for Aβ40, Aβ42, and amyloid levels. • CBF response to brain activation. The CBF response to vibrissal stimulation in anesthetized APPsw^+/− mice was measured by using laser-doppler flowmetry (Transonic Systems, BLF 21 D). The tip of the laser-doppler probe was stereotaxically placed 0.5 mm above the dura of the cranial window. The right vibrissae were cut to about 5 mm and stimulated by gentle stroking at 3-4 Hz, for 1 min with a cotton-tip applicator. […] The time exploring the novel and familiar objects was scored by hand to provide discrimination. • Human Aβ40 and Aβ42. […]

In the case of CC(CC(=O)NCCCN(C(=O)c1cc([N+](=O)[O-])cc([N+](=O)[O-])c1)c1ccccc1)CC(C)(C)C (stereo not shown) [FPS2, 3,5-dinitro-N-phenyl-N-[3-[(3,5,5-trimethyl-1-oxohexyl)amino]propyl]-(9Cl)-benzamide], the “reduction of Aβ40 level in the cortex compared to vehicle” value is reported as “about 70%”, the “reduction of Aβ40 level in the hippocampus compared to vehicle” value is reported as “about 85%” and the “reduction of Aβ42 level in the cortex compared to vehicle” value is reported as ~80%. The “reduction of Aβ42 level in the hippocampus compared to vehicle” value was ~90%.
